Species on record: Rattus norvegicus
Assay: Open TG-GATES - Regimen: Single
Type: toxicity, organism-based, Sprague-Dawley
Parameters: regimen Single, gender Male, age 6 weeks
Conditions: in vivo, po, 2000 mg/kg, route gavage, dose level High; for APTT / Bas / Eos / Fbg / Hb / Ht / Lym / MCHC / MCV / Mono / PT / Plat / RBC / Ret / WBC: tissue Blood; for KIDNEY_L / KIDNEY_R / KIDNEY_TOTAL: tissue Kidney; for LIVER: tissue Liver; for ALP / ALT / AST / BUN / CRE / DBIL / GLC / K / LDH / Na / PL / RALB / TBIL / TC / TG / TP / gamma-GTP: tissue Plasma

O=C1NC(=O)C(c2ccccc2)(c2ccccc2)N1 [PHENYTOIN]
TERMINAL_BW (3 h): 211 g | APTT (3 h): 19.4 s | Bas (3 h): 0.2% | Eos (3 h): 1% | Fbg (3 h): 266.2 mg/dL | Hb (3 h): 13.1 g/dL | Ht (3 h): 38.8% | Lym (3 h): 77.6% | MCHC (3 h): 33.6% | MCV (3 h): 61.9 fL | Mono (3 h): 3.4% | PT (3 h): 14.1 s | Plat (3 h): 118.3 x10_4/uL | RBC (3 h): 626.4 x10_4/ul | Ret (3 h): 8.3% | WBC (3 h): 94.8 x10_2/uL | KIDNEY_L (3 h): 0.9 g | KIDNEY_R (3 h): 0.9 g | KIDNEY_TOTAL (3 h): 1.8 g | LIVER (3 h): 8.7 g | ALP (3 h): 1674 IU/L | ALT (3 h): 37.8 IU/L | AST (3 h): 76 IU/L | BUN (3 h): 10.2 mg/dL | CRE (3 h): 0.2 mg/dL | DBIL (3 h): 0.012 mg/dL | GLC (3 h): 185.6 mg/dL | K (3 h): 3.9 meq/L | LDH (3 h): 78.4 IU/L | Na (3 h): 141.4 meq/L | PL (3 h): 137.8 mg/dL | RALB (3 h): 2.5 g/dL | TBIL (3 h): 0.058 mg/dL | TC (3 h): 72 mg/dL | TG (3 h): 41.8 mg/dL | TP (3 h): 5.4 g/dL | gamma-GTP (3 h): 1.2 IU/L | TERMINAL_BW (6 h): 208.6 g | APTT (6 h): 16.1 s | Bas (6 h): 0.2% | Eos (6 h): 0.8% | Fbg (6 h): 289 mg/dL | Hb (6 h): 13.1 g/dL | Ht (6 h): 39.2% | Lym (6 h): 79.2% | MCHC (6 h): 33.4% | MCV (6 h): 61.4 fL | Mono (6 h): 2.4% | PT (6 h): 14.3 s | RBC (6 h): 637.2 x10_4/ul | Ret (6 h): 7.9% | WBC (6 h): 80.1 x10_2/uL | KIDNEY_L (6 h): 1 g | KIDNEY_R (6 h): 0.9 g | KIDNEY_TOTAL (6 h): 1.9 g | LIVER (6 h): 8.5 g | ALP (6 h): 1539.4 IU/L | ALT (6 h): 32 IU/L | AST (6 h): 71.8 IU/L | BUN (6 h): 8.6 mg/dL | CRE (6 h): 0.2 mg/dL | DBIL (6 h): 0.016 mg/dL | GLC (6 h): 186.4 mg/dL | K (6 h): 3.8 meq/L | LDH (6 h): 94.8 IU/L | Na (6 h): 142.2 meq/L | PL (6 h): 139.6 mg/dL | RALB (6 h): 2.5 g/dL | TBIL (6 h): 0.058 mg/dL | TC (6 h): 74.2 mg/dL | TG (6 h): 26 mg/dL | TP (6 h): 5.4 g/dL | gamma-GTP (6 h): 1.4 IU/L | TERMINAL_BW (9 h): 209.1 g | APTT (9 h): 15.5 s | Bas (9 h): 0.4% | Eos (9 h): 1% | Fbg (9 h): 295.6 mg/dL | Hb (9 h): 12.9 g/dL | Ht (9 h): 38.7% | Lym (9 h): 77.6% | MCHC (9 h): 33.4% | MCV (9 h): 61.4 fL | Mono (9 h): 1.6% | PT (9 h): 14 s | Plat (9 h): 122 x10_4/uL | RBC (9 h): 631.4 x10_4/ul | Ret (9 h): 8% | WBC (9 h): 93 x10_2/uL | KIDNEY_L (9 h): 0.9 g | KIDNEY_R (9 h): 0.9 g | KIDNEY_TOTAL (9 h): 1.8 g | LIVER (9 h): 7.6 g | ALP (9 h): 1420.6 IU/L | ALT (9 h): 31.6 IU/L | AST (9 h): 74.6 IU/L | BUN (9 h): 7.8 mg/dL | CRE (9 h): 0.2 mg/dL | DBIL (9 h): 0.016 mg/dL | GLC (9 h): 182.2 mg/dL | K (9 h): 3.9 meq/L | LDH (9 h): 83.2 IU/L | Na (9 h): 141.8 meq/L | PL (9 h): 124 mg/dL | RALB (9 h): 2.6 g/dL | TBIL (9 h): 0.062 mg/dL | TC (9 h): 66 mg/dL | TG (9 h): 23.2 mg/dL | TP (9 h): 5.5 g/dL | gamma-GTP (9 h): 1.8 IU/L | TERMINAL_BW (24 h): 203.9 g | APTT (24 h): 17 s | Bas (24 h): 0% | Eos (24 h): 1% | Fbg (24 h): 279.2 mg/dL | Hb (24 h): 13.8 g/dL | Ht (24 h): 40.9% | Lym (24 h): 75.4% | MCHC (24 h): 33.7% | MCV (24 h): 62.5 fL | Mono (24 h): 2.2% | PT (24 h): 14.3 s | Plat (24 h): 121.4 x10_4/uL | RBC (24 h): 654.4 x10_4/ul | Ret (24 h): 7.7% | WBC (24 h): 89.2 x10_2/uL | KIDNEY_L (24 h): 1 g | KIDNEY_R (24 h): 1 g | KIDNEY_TOTAL (24 h): 1.9 g | LIVER (24 h): 8 g | ALP (24 h): 1411 IU/L | ALT (24 h): 25.2 IU/L | AST (24 h): 66 IU/L | BUN (24 h): 9.8 mg/dL | CRE (24 h): 0.2 mg/dL | DBIL (24 h): 0.014 mg/dL | GLC (24 h): 174.8 mg/dL | K (24 h): 4.3 meq/L | LDH (24 h): 77 IU/L | Na (24 h): 141.8 meq/L | PL (24 h): 124.8 mg/dL | RALB (24 h): 2.6 g/dL | TBIL (24 h): 0.052 mg/dL | TC (24 h): 67.6 mg/dL | TG (24 h): 38 mg/dL | TP (24 h): 5.7 g/dL | gamma-GTP (24 h): 1.2 IU/L

— ChEMBL document CHEMBL3885861, “Open TG-GATES”
